Each structure is given as a SMILES string. pKi: −log10 of the molar value. Like-named read-outs stand apart in the source and are kept apart here.

For data set [1], the target named is T1, hCA I (Homo sapiens, UniProt P00915).
T1 construct: made in house
More on the design: method as in PMID 29197732. The conditions noted are these: reference compounds; read-out: Inhibition data (Ki) hCA I; cited from earlier work.

The target of data set [2] is T2, hCA II (Homo sapiens, UniProt P00918).
T2 construct: made in house
More on the design: method as in PMID 29197732. The conditions noted are these: reference compounds; read-out: Inhibition data (Ki) hCA II; cited from earlier work.

Data set [3] has as its target T3, hCA IX (Homo sapiens, UniProt Q16790).
T3 construct: made in house
Kind of data set: stopped-flow CO2 hydrase assay, hCA IX. Type of data set: biochemical. Conditions: recombinant hCA IX; stopped-flow CO2 hydration; 15 min preincubation; errors ± 10%, 3 assays; read-out: Inhibition data (Ki) hCA IX. The procedure:
(§1) An applied photophysics stopped-flow instrument has been used for assaying the CA catalysed CO2 hydration activity. Phenol red (at a concentration of 0.2 mM) has been used as an indicator, working at the absorbance maximum of 557 nm, with 10–20 mM Hepes (pH 7.5) or Tris (pH 8.3) as buffers, and 20 mM Na2SO4 or 20 mM NaClO4 (for maintaining constant the ionic strength), following the initial rates of the CA-catalysed CO2 hydration reaction for a period of 10–100 s. The CO2 concentrations ranged from 1.7 to 17 mM for the determination of the kinetic parameters and inhibition constants. For each inhibitor, at least six traces of the initial 5-10% of the reaction have been used for determining the initial velocity. The uncatalyzed rates were determined in the same manner and subtracted from the total observed rates. Stock solutions of inhibitor (10 mM) were prepared in distilled-deionized water and dilutions up to 0.01 nM were done thereafter with distilled-deionized water. Inhibitor and enzyme solutions were preincubated together for 15 min at room temperature prior to assay to allow for the formation of the E–I complex. The inhibition constants were obtained by non-linear least-squares methods using PRISM 3, as reported earlier and represent the mean from at least three different determinations. CA isoforms were recombinant ones obtained as reported earlier by this group.
(§2) This small series of coumarin derivatives 7–11, 15–17 were subjected to the stopped-flow CO2 hydrase assays to evaluate the binding affinity against the tumour-associated hCA IX and XII over ubiquitous isoforms hCA I and II.

The target in data set [4] is T1, hCA I. Kind of data set: stopped-flow CO2 hydrase assay, hCA I. Type of data set: biochemical. The conditions noted are these: recombinant hCA I; stopped-flow CO2 hydration; 15 min preincubation; errors ± 10%, 3 assays; read-out: Inhibition data (Ki) hCA I. The procedure: as §1, §2
Data set [5] concerns the target T4, hCA XII (Homo sapiens, UniProt O43570).
T4 construct: made in house
The data set is described as follows: stopped-flow CO2 hydrase assay, hCA XII. Type of data set: biochemical. The conditions noted are these: for pKi: recombinant hCA XII, stopped-flow CO2 hydration, 15 min preincubation, errors ± 10%, 3 assays, read-out: Inhibition data (Ki) hCA XII. How it is done:
as §1, §2

The target in data set [6] is T2, hCA II. The data set is described as follows: stopped-flow CO2 hydrase assay, hCA II. The data set is classed as biochemical. The conditions noted are these: recombinant hCA II; stopped-flow CO2 hydration; 15 min preincubation; errors ± 10%, 3 assays; read-out: Inhibition data (Ki) hCA II. The procedure:
as §1, §2

T1 sequence (P00915 whole entry): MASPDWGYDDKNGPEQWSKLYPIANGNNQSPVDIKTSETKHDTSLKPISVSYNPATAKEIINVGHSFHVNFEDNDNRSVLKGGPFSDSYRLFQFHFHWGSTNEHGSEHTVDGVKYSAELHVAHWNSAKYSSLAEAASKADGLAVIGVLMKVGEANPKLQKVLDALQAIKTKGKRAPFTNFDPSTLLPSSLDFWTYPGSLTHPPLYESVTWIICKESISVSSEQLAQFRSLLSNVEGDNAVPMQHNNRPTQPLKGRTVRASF
T4 sequence (O43570 25-354): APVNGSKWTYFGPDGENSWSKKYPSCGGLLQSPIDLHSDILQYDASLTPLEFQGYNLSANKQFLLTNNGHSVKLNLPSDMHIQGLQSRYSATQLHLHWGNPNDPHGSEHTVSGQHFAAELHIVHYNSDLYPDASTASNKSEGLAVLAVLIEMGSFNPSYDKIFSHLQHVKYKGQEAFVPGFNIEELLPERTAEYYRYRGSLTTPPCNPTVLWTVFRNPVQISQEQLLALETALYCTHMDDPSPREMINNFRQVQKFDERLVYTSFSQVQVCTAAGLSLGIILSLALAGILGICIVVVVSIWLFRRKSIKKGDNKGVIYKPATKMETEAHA

Take `O=c1cc(-c2ccccc2)c2ccc(O)cc2o1` [compound 3, 7-hydroxy-4-phenyl-2H-chromen-2-one]: the pKi in data set [1] and in data set [2] was less than 5.00 each time.
With `Cc1c(O)ccc2c(-c3ccc(N)cc3)cc(=O)oc12` [compound 4, 4-(4-aminophenyl)-7-hydroxy-8-methyl-2H-chromen-2-one], the pKi in data set [1] and in data set [2] was less than 5.00 each time.
For the compound `CC(=O)Oc1ccc2c(-c3ccccc3)cc(=O)oc2c1` [compound 7, 2-oxo-4-phenyl-2H-chromen-7-yl acetate], the melting point was in the range of 129 to 131 °C. For the same compound, the pKi in data set [3] was 7.25. The pKi in data set [4] was less than 5.00. Moreover, the pKi in data set [5] was 6.13. Further, the pKi in data set [6] was less than 5.00.
The compound `CCC(=O)Oc1ccc2c(-c3ccccc3)cc(=O)oc2c1` [compound 8, 2-Oxo-4-phenyl-2H-chromen-7-yl propionate] came in with a melting point of 172 to 174 °C. Further, the pKi in data set [3] is 7.01. Besides, the negative logarithm of the Ki (pKi) in data set [4] is less than 5.00. Besides, the pKi in data set [5] was 6.28. In addition, in data set [6], the pKi was less than 5.00.
As for `O=C(Oc1ccc2c(-c3ccccc3)cc(=O)oc2c1)c1ccccc1` [compound 9, 2-Oxo-4-phenyl-2H-chromen-7-yl benzoate], the pKi in data set [3] was 7.66; in data set [4], less than 5.00; in data set [5] it was 6.41; in data set [6] it was less than 5.00.
As to `CC(=O)c1c(O)ccc2c(-c3ccccc3)cc(=O)oc12` [compound 10, 8-Acetyl-7-hydroxy-4-phenyl-2H-chromen-2-one], the pKi in data set [3] is 6.75; in data set [4], less than 5.00; in data set [5], 7.60; in data set [6], less than 5.00.
Compound `CCC(=O)c1c(O)ccc2c(-c3ccccc3)cc(=O)oc12` [compound 11, 7-Hydroxy-4-phenyl-8-propanoyl-2H-chromen-2-one] showed a melting point of 172 to 174 °C. Further, the pKi in data set [3] was 5.52. In data set [4], the pKi is less than 5.00. The “fold less active/efficient towards hCA XII than parent compound 3” value in data set [5] (ratio of Ki values versus compound 3) was found to be 10 fold. Further, the pKi in data set [5] was 6.06. The pKi in data set [6] was less than 5.00.
As for `O=c1cc(-c2ccccc2)c2ccc(O)c(Cl)c2o1` [compound 15, 8-Chloro-7-hydroxy-4-phenyl-2H-chromen-2-one], the melting point is 214 to 215 °C. In addition, the pKi in data set [3] was 6.58. Besides, the pKi in data set [4] was less than 5.00. For the same compound, the pKi in data set [5] is 7.49. The pKi in data set [6] was less than 5.00.
Consider `O=c1cc(-c2ccc([N+](=O)[O-])cc2)c2ccc(O)c(Cl)c2o1` [compound 16, 8-Chloro-7-hydroxy-4-(4-nitrophenyl)-2H-chromen-2-one], for which the melting point lay in the range of 303 to 305 °C.
Regarding `Nc1ccc(-c2cc(=O)oc3c(Cl)c(O)ccc23)cc1` [compound 17, 4-(4-aminophenyl)-8-chloro-7-hydroxy-2H-chromen-2-one], the melting point fell in the range of 313 to 315 °C. In data set [3], the pKi is 6.74. Also, the pKi in data set [4] is less than 5.00. Further, the pKi in data set [5] was 7.53. The pKi in data set [6] was less than 5.00.

Values taken from paper PMC7717710, “Synthesis, computational studies and assessment of in vitro inhibitory activity of umbelliferon-based compounds against tumour-associated carbonic anhydrase isoforms IX and XII” (Journal of Enzyme Inhibition and Medicinal Chemistry, 2020).
